Here are results for 3 substances from patent US20250296967A1 (Ferring B.V., priority 2006, published 2025).

A short description of series [1]: Comparative release of synthetic growth factor analogues from a single scaffold (BCA, FIG. 5). Format: physicochemical. As to conditions: 100 μg peptide/cc granule, 0.9% saline. Here is the method: Methods for assaying peptide release from a single scaffold are as follows: 1 cc of granules were added to 1.2 mL of 0.9% saline or of peptide solution in 0.9% saline having a concentration of 100 μg B2A2-K-NS, LA2, or F2A4/cc granule. The granule-peptide solutions were swirled vigorously for 15 seconds every 5 minutes for 20 minutes. After swirling, the supernatant was removed and assayed via BCA or micro BCA assay for peptide content. The BCA value for each peptide was corrected relative to the BSA standard curve.
Referring now to FIG. 5, the shape of the release curve is similar for all three peptides (B2A2-K-NS (diamonds), LA2 (squares), and F2A4-K-NS (triangles)). However, the magnitude of the release is markedly different.

The test system of series [2] is B2A2-K-NS. Briefly: Binding of B2A2-K-NS to commercially available bone replacement grafts (ELISA, difference method). The conditions noted are these: BRGs in 0.9% saline. Format: physicochemical. The protocol: The next step was to determine whether the peptide was able to bind these BRGs. B2A2-K-NS (approximately 20 μg/ml) was incubated in one ml of 0.9% saline solution with 0.17 gram BRGs for 15 minutes. An ELISA assay was performed both on peptide solution without BRGs and the supernatant from the peptide+BRG. The difference between the peptide only reading and the supernatant from the peptide+BRG provided the amount of peptide bound.
The binding definitions are defined as follows: None is no detectable binding. High is binding>20 μg peptide/cc graft material. Intermediate is less than 20 μg peptide/cc graft material, but above non-detectable binding.

Series [3] is described as follows: Release of B2A2-K-NS from ceramic granules (BCA, cumulative release, FIG. 1). Type of series: physicochemical. The conditions noted are these: first 4 hour period, 0.9% saline. Here is the method: Methods: After binding the peptide to the granules as described in Example 2, each of the vials containing particulate materials was replenished with 1.8 mL of 0.9% saline and placed on the rocking platform. After specified time interval, the supernatant was removed, filtered, and collected over a period of 43 hrs. Based on the amount of the peptide present in the supernatant, the amount of peptide bound to or released from the particles as was calculated. The study was performed on two separate days with the averages plotted showing cumulative peptide released vs. time (see graph in FIG. 1) (Note: the HA plus silicon was only performed at high dose). A BCA assay was utilized to determine peptide concentrations. The 60:40 granule was pH 8.8.
Referring now to FIG. 1, the release characteristics of specified materials tested. There was a burst of peptide released over a 4 hour period (supernatant was assessed hourly for the first four hours). At high loading doses (431 μg peptide/cc granule), the burst phase accounted for 12-22% of the total amount of peptide loaded. For intermediate loading doses (144 μg peptide/cc granule), the burst phase accounted for 25-35% of the total amount loaded. For low doses (43 μg peptide/cc granule), the burst phase accounted for 48-59% of the total amount loaded. Following the burst period, there was a slower, sustained release period.
The diamond on the graph represents 60% HAP and 40% TCP (high dose). The square represents 60% HAP and 40% TCP (medium dose). The triangle represents 20% HAP and 80% TCP (high dose). The X represents 20% HAP and 80% TCP (medium dose). The star represents 100% HAP plus Si (high dose). The filled-in circle represents 60% HAP and 40% TCP (low dose), and the plus sign represents 20% HAP and 80% TCP (low dose).

The test system of series [4] is mouse pluripotent cell lines C2C12. Briefly: Alkaline phosphatase assay of B2A2-K-NS released from 20:80 granules, with or without BMP-2. Type of series: cell-based. The conditions noted are these: peptide released from 20:80 granules, 1.25- to 10 μg/ml, BMP-2 100 ng/ml, C2C12 cells, 1 day. Here is the method: Methods: (A) Peptide was collected over a six hour period after release from 20:80 (as described in Example 3). The supernatants from all time points were mixed, frozen, and lyophilized for 48 hours. The peptide pellet was reconstituted in 1.5 ml saline and a BCA assay performed to determine peptide concentration.
(B) Alkaline phosphatase assays were performed using mouse pluripotent cell lines C2C12. Cells were plated in 96-well (1×10^4/well) plates in DMEM/F-12 Ham's containing 15% FBS, 1% L-gln, 1% NaPyr, and 1% gentamycin and allowed 24 hours to attach at 37 C, 5% CO2, 90% humidity. […] After 1 day, ALP activity was determined.

The target of series [5] is T1, Type I, bovine-derived, dermal collagen sheets (Bos taurus, UniProt P02453+P02465).
T1 construct: Type I, bovine-derived, dermal collagen sheets; from tissue; host or cells: bovine dermis
T1 sequence (P02453 162-1217 limits assumed): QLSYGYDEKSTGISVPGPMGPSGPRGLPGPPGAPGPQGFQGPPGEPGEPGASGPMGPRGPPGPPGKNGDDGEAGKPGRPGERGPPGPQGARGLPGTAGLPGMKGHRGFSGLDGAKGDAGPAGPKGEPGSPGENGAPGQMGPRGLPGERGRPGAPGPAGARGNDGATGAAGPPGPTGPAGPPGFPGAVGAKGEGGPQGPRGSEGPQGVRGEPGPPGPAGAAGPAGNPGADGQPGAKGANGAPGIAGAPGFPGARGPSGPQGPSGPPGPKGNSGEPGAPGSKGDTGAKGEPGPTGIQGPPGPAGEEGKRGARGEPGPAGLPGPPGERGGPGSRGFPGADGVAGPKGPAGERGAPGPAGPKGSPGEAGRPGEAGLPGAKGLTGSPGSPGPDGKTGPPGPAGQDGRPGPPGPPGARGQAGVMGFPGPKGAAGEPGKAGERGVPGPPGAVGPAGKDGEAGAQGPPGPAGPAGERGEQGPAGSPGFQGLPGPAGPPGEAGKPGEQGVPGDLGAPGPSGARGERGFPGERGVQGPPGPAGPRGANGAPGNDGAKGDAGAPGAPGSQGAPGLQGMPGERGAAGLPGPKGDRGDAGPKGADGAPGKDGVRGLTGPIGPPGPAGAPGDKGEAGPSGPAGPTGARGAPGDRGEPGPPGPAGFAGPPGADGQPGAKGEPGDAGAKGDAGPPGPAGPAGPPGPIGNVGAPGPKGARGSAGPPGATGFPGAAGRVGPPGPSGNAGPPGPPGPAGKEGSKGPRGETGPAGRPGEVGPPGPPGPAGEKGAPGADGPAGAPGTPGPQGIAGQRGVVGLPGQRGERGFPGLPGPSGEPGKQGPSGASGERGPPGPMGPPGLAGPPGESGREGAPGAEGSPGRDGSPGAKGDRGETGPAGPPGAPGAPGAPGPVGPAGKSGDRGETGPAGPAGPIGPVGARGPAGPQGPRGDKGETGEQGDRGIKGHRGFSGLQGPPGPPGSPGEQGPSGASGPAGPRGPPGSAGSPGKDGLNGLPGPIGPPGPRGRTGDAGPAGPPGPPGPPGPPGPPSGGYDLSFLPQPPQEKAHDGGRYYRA
T1 sequence (P02465 80-1117 limits assumed): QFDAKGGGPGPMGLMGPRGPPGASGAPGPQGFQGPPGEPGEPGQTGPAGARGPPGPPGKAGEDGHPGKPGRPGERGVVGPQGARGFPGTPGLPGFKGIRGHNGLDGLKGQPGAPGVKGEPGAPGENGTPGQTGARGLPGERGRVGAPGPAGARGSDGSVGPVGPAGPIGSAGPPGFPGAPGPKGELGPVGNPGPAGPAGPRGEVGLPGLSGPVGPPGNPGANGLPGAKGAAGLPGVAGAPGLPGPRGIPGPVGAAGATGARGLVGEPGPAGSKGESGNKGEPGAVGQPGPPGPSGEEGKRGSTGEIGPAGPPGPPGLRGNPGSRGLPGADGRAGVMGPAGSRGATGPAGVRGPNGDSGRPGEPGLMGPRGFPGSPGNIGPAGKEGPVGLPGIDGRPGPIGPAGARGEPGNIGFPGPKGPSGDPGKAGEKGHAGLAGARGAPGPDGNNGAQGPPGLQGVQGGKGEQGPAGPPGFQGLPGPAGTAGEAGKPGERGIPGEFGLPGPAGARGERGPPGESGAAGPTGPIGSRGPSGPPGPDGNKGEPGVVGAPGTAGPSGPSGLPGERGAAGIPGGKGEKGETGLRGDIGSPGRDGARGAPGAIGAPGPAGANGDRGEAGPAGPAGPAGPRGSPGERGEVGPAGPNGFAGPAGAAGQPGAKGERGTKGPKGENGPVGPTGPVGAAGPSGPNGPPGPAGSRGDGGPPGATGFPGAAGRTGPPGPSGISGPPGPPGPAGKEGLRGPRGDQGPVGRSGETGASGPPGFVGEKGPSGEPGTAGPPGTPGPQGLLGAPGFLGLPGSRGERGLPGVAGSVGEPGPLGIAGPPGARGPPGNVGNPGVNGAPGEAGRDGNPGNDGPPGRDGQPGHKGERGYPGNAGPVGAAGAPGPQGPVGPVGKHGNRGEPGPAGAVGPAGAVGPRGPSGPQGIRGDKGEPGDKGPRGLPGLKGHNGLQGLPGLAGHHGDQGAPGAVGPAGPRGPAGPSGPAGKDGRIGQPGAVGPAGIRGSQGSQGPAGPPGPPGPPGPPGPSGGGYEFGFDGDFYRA
Briefly: Release of B2A2-K-NS from collagen (BCA). Type of series: physicochemical. The conditions noted are these: 0.9% saline. Here is the method:
To initiate release, a vial containing collagen coated with B2A2-K-NS was replenished with 2 ml of 0.9% saline and placed on the rocking platform. After specified time interval, the supernatant was removed, filtered, and collected. A BCA assay was utilized to determine peptide concentrations. […] The BSA standard curve was generated by placing BSA in supernatant from the collagen sponge (without peptide).

Series [6] concerns the target T1, Type I, bovine-derived, dermal collagen sheets. Briefly: Binding of B2A2-K-NS to collagen sheets. Format: physicochemical. As to conditions: 1,072 μg B2A2-K-NS/ml collagen sheet in 0.9% saline. Here is the method: Type I, bovine-derived, dermal collagen sheets that were crosslinked with DHT and lyophilized were incubated with 1,072 μg B2A2-K-NS/ml collagen sheet in 0.9% saline solution. The binding efficiency was 61%, which was far lower than the binding efficiency on the Ca^2+ containing granules at high B2A2-K-NS coating concentrations (87-95% as described in Example 2). Lower binding efficiencies may be attributed to lower surface area as compared to that of the granules.

Series [7] deals with B2A2-K-NS. Briefly: Release of B2A2-K-NS from peptide bound BRGs (ELISA). Format: physicochemical. As to conditions: 0.9% saline. The protocol: The third step was to measure the amount of peptide released using the same ELISA assay. Briefly, the peptide bound BRGs were placed in 1 ml of 0.9% saline and the amount of peptide released was measured over a 72 hours period.
The subject of series [8] is B2A2-K-NS. Description: Binding of B2A2-K-NS to ceramic granules (BCA / micro BCA, subtraction method). Type of series: physicochemical. As to conditions: high B2A2-K-NS coating concentrations, as described in Example 2. Here is the method:
Methods. 1.5 cc of granules were added to 1.8 mL of 0.9% saline or of peptide solution in 0.9% saline having a concentration of 35.9, 119.8, 359.3 μg/ml. The granule-peptide solutions were swirled vigorously for 15 seconds every 5 minutes for 20 minutes. After swirling, the supernatant was removed, filtered through 0.22 μm filter (low protein binding durapore (PVDF)) and assayed via Bicinchoninic Acid (BCA) or micro BCA assay (Pierce, Rockport, IL) for peptide content. The amount of peptide bound to the particles was obtained by subtraction method (the total peptide minus peptide present in the supernatant is equal to the amount of peptide bound on particulate materials.). The study was performed on two separate days and the results averaged below: […]

The test system of series [9] is ectopic bone. Briefly: Ectopic bone induction by B2A2-K-NS coated granules with exogenous recombinant BMP-2, subcutaneous implant in rats. Type of series: in vivo. The protocol: Sterile ceramic granules (Berkeley Advanced Biomaterials, Inc.; 60:40 (HA:TCP)) where coated by immersing them for 30 minutes in a solution containing B2A2-K-NS (0-, 2.5-, 10-, 25 μg/ml). Thereafter, the solution was removed by aspiration and the granules allowed to air dry. The coated granules were then placed in sterile gelatin capsules. […] The capsules were placed subcutaneously in young adult rats on the flanks in pre-prepared pouches and the surgical site closed with surgical clips. After 30 days, the implants were surgically removed, weighed, and palpated to assess hardness. The explants were then fixed with multiple changes into 70% ethanol.

On to “SIKVAVAAK(H-SIKVAVAA)xHxHxRKRKLERIAR-amide [LA2]”, for which the “release of peptide from the scaffold (relative magnitude)” value in series [1] is given as “most rapidly released”.
Same read-out and setting: for “YRSRKYSSWYVALKRK(H-YRSRKYSSWYVALKR)HxHxHxRKRLDRIAR-amide [F2A4]” the value was “does not release readily”.
On to “AISMLYLDENEKVVLKK(AISMLYLDENEKVVLK)HxHxHxRKRLDRIARNH2 [B2A2-K-NS]”, for which the “pH range of BRGs to which the peptide was found to bind” value in series [2] is given as 3.7-10.5. In [3] (high loading doses (431 μg peptide/cc granule)), the “burst phase release, share of the total amount of peptide loaded” value is 12-22%. In addition, the figures for the “burst phase release, share of the total amount loaded” value in [3] (intermediate loading doses (144 μg peptide/cc granule)) and in series [3] (low doses (43 μg peptide/cc granule)) were 25-35% and 48-59%, respectively. Also, the “effect on BMP-2 activity (ALP activity)” value in series [4] is “increased BMP-2 activity”. In addition, the “cumulative amount of peptide released” value is 11% in series [5] (after 1 hour), 19% in [5] (after 2 hours), 23% in series [5] (after 3 hours) and 28% in series [5] (after 4 hours). The substance further gave a binding efficiency in series [6] of 61%. In addition, in series [7], the “pH range of materials from which the peptide could release” value is recorded as 6.3-10. Besides, in [8], the “binding efficiency on the Ca2+ containing granules” value is reported as 87-95%. For the same substance, the “implants judged palpably hardened” value in [9] (coated with 2.5 μg B2A2-K-NS, 1 μg recombinant BMP-2, rats, 30 days) was 3/4; in [9] (coated with 10 μg B2A2-K-NS, 1 μg recombinant BMP-2, rats, 30 days), 3/4; in series [9] (coated with 25 ug B2A2-K-NS, 1 μg recombinant BMP-2, rats, 30 days), 4/4. The “implants with histologically identifiable new bone” value in series [9] (coated with 25 ug B2A2-K-NS, 1 μg recombinant BMP-2, rats, 30 days, hematoxylin and eosin) is listed as 4/4. In [9] (rats, subcutaneous, 60:40 (HA:TCP) granules coated with 25 μg B2A2-K-NS, 1 μg recombinant BMP-2, 30 days), the “explant weight versus controls (no BMP-2, no B2A2-K-NS)” value is recorded as “significantly higher weight”. Besides, the “explant weight versus those containing BMP-2 but no B2A2-K-NS” value in [9] (rats, subcutaneous, granules coated with 25 μg B2A2-K-NS, 1 μg recombinant BMP-2, 30 days) is on record as “tended (p=0.11) to have a higher weight”.
